Data reported in patent publication US6686388B2, “Regulators of the hedgehog pathway, compositions and uses related thereto” (priority 1999, dated 2004).
Read-outs that look alike come from different tables or passages of the source.

Experiments:
medulloblastoma cells = assay: tritiated thymidine incorporation assay in medulloblastoma cells; type: cell-based, mouse; details: typical assay
Protocol: In order to test the effects of cAMP agonists on the proliferation of Hh-pathway tumor cells, primary medulloblastoma cell cultures were similarly treated with forskolin or control vehicle. From 2-3 DIV, bromodeoxyuridine (BrdU) was then added to the cultures, to label proliferating cells. On 3 DIV, cells were fixed with paraformaldehyde. Cells were then immunostained with an antibody to BrdU to identify cells that had been proliferating, and counterstained with bisbenzimide to determine total cell number. The number of total and BrdU(+) cells were then scored in multiple fields in wells of each condition, to determine the percent proliferating cells under different treatments. The scorer was blinded as to the treatments of the cells. […] Similar results were obtained when proliferation was measured using a tritiated thymidine incorporation assay, and other cAMP agents were also found to be effective.

Hh signaling = assay: Xgal staining of subcutaneous medulloblastoma tumors after drug infusion; type: in vivo, mouse; details: tumor infusion for several days, compared to control (water)
Text: (§1) To determine whether Hh signaling inhibitors can inhibit tumor growth in vivo, medulloblastoma cells from ptc-1 knockout mice were transplanted subcutaneously into athymic (“nude”) mice. After allowing time for the tumor cells to grow at the injection site, the transplanted mice were divided into groups, and treated with either control vehicle, or cAMP agonist drugs. In one set of experiments, tumors were infused with either H-forskolin, or water as a control. After several days of drug infusion, the mice were sacrificed, and the tumors were sectioned for histology. The transplanted medulloblastoma cells from the ptc knockout mice contain a lacZ transgene (encoding β-galactosidase), the expression of which is induced by Hh signaling. Therefore, the level of β-galactosidase in these cells indicates their level of […] signaling. Thus, in order to determine how effectively the infused drug inhibited Hh signaling in the tumor, the tumor sections were stained for β-galactosidase activity using the substrate Xgal, which stains expressing cells blue.

[1] = tested on: medulloblastoma cells from ptc-1 knockout mice; assay: growth of subcutaneous-transplanted medulloblastoma tumors in nude mice; type: in vivo, mouse
Text: as §1
In order to determine whether Hh pathway inhibitors can inhibit tumor growth in vivo, cAMP agonists were administered to mice that, as above, had subcutaneous medulloblastoma tumors. In one experiment, one group of mice received daily intraperitoneal injections of forskolin, while control mice received equivalent injections of vehicle (DMSO). The volumes of the tumors were regularly determined by measuring tumor dimensions with a caliper. In the mice treated with DMSO control, the tumors grew much more rapidly than in the mice treated with forskolin. […] In a similar experiment, H-forskolin or control vehicle was administered systemically to mice continuously, via an osmotic minipump that was implanted subcutaneously (and replaced regularly). Again in this experiment (FIG. 13), tumor size was smaller in the H-forskolin-treated mice than in the control mice.

[2] = tested on: medulloblastoma tumor cells; type: cell-based, mouse
Protocol: These medulloblastoma cells were derived from tumors that arose in the brains of mice heterozygous for an inactivating mutation in the ptc gene (“heterozygous ptc knockout mice”). Mutation of ptc leads to inappropriate activation of the Hh signaling pathway, and in these ptc knockout mice, the ptc mutation results in the occurrence of medulloblastomas. The medulloblastoma tumor cells were placed into primary culture in neuronal culture medium (Basal Medium of Eagle, with 10% calf serum, 25 mM KCl, and 2 mM glutamine). Cells were typically seeded at 0.5 or 1.0×10^6 cells/well of a 24 well plate, in 0.5 ml of medium per well. […] From 2-3 DIV, bromodeoxyuridine (BrdU) was added to the cultures, to label proliferating cells. On 3 DIV, cells were fixed with paraformaldehyde. […] The numbers of total and BrdU(+) cells were then scored in multiple fields in wells of each condition, to determine the percent proliferating cells under different treatments. The scorer was blinded as to the treatments of the cells.
(§2) To determine the effects of cAMP agonist drugs on the Hedgehog (Hh) signaling pathway in tumor cells, medulloblastoma cells were grown in primary culture. These medulloblastoma brain tumors arose in mice heterozygous for an inactivating mutation in the ptc-1 gene (“heterozygous ptc knockout mice”). Mutation of ptc-1 leads to inappropriate activation of the Hh signaling pathway, and in these ptc-1 knockout mice, the ptc-1 mutation results in the occurrence of medulloblastoma. The medulloblastoma tumor cells were placed into primary culture in neuronal culture medium (Basal Medium of Eagle, with 10% serum, 25 mM KCl, and 2 mM glutamine). Cells were typically seeded at 0.5 or […] cells/well of a 24 well plate, in 0.5 ml of medium. One day after seeding (i.e., on 1 day in vitro, or DIV), cells were treated with forskolin (50 μM final), or an equal amount of vehicle (0.1% DMSO). On 3 DIV, RNA was isolated from the cells, and the expression of the Hh-response gene gli-1 was determined by RT-PCR analysis.
In order to test the effects of cAMP agonists on the proliferation of Hh-pathway tumor cells, primary medulloblastoma cell cultures were similarly treated with forskolin or control vehicle. From 2-3 DIV, bromodeoxyuridine (BrdU) was then added to the cultures, to label proliferating cells. On 3 DIV, cells were fixed with paraformaldehyde. […] The number of total and BrdU(+) cells were then scored in multiple fields in wells of each condition, to determine the percent proliferating cells under different treatments. The scorer was blinded as to the treatments of the cells.

gli-1 = gli-1 expression by RT-PCR in primary medulloblastoma cells; type: cell-based, mouse; details: 50 μM, RNA on 3 DIV
Protocol: as §2

[3] = tested on: hair follicle development; assay: topical application on newborn Ptc-lacZ mice, skin histology; type: in vivo, mouse; details: 5 mM in DMSO topical, twice a day, 7 days
Protocol: This effect may be due to the inhibition of the Hh pathway by forskolin, as the Hh pathway plays a critical role in hair follicle development (FIG. 14). Postnatal day 2 mouse pups were used for this experiment. For each pup, 5 μl of DMSO or forskolin in DMSO (5 mM) was applied on the center of the back using a micro-pipette tip. The same procedure is repeated twice, with a total of […] compound applied each time. The procedure was performed on the same animal twice a day for a period of 7 days. The pups were then sacrificed and the skin was taken from the applied area for histology analysis. H&E staining was performed on the paraffin embedded sections.

hair development = assay: injection of pregnant female mouse, hair development in the fetus; type: in vivo
Protocol: For these experiments, 20 μl of forskolin in DMSO (50 mM) was injected into a pregnant female mouse daily for E14.5 to E17.5 intraperitoneally. The mouse was sacrificed at E17.5 and the fetuses were removed for gross inspection. The skin from each fetus was processed for H&E staining.

[4] = tested on: basal cell carcinoma tissue; assay: subcutaneous injection near basal cell carcinoma, histology; type: in vivo, mouse; details: subcutaneous near the tumor, once a day, 21 days
Protocol: Experiments were conducted to determine the effect of cAMP elevating agents on basal cell carcinoma tissue. A solution of forskolin (50 mM) in ethanol was diluted 1:2 with cremophor (resulting in 50% ethanol/50% cremophor), then diluted 1:5 with PBS or normal saline (resulting in final 10% ethanol/10% cremophor/80% PBS or saline. The solution was administered by subcutaneous injection at different sites near the tumor (e.g., within a few millimeters of the margin), but not into the tumor itself. Treatment continued once a day every 24 hours for 21 days, 1 μl compound/g weight. After treatment, tumor size was measured, and the tumor was removed and analyzed by histology to determine morphological changes. Untreated BCC tissue is depicted in FIG. 16, and forskolin-treated tissue is depicted in FIGS. 17-18.

hair follicles = assay: hydron pellet implantation into ptc-1 lacZ skin punches, 8 days of culture; type: cell-based, mouse; details: implanted pellets, Shh supplied with the culture medium
Protocol: FIG. 19 depicts hydron pellet implantation into 3-day mouse ptc-1 lacZ skin punches after 8 days of culture. Ethanol, hydron polymer, and Shh or forskolin in PBS, respectively, were mixed according to the manufacturer's instructions, poured in 2 mm pellet casts and dried/UV-irradiated over night. Alternatively, 3 mg/ml of octylated Shh protein was added to the culture medium (on day 1, 3 and 5) for the medium control as well as the forskolin-pellet implant. 3-day-old skin was harvested from the backs of mouse pups transgenic for ptc-1 lacZ, as identified by lacZ reporter detection using tails, by standard procedures. 6 mm skin punches were taken using Miltex skin punches and incubated for 60 min. Pellets were inserted by carefully separating the dermal from the epidermal layer using forceps. Cultures were grown for 8 days, fixed in lacZ fixative according to standard protocols, rinsed and stained for lacZ over night at 37° C.
Results: (A) Untreated control, showing a small number of short hairs. […] Hair length and thickness of the dermis thickness are increased as well. Ptc-lacZ, a reporter gene indicative of Shh signaling is induced in follicular as well as basal cells (blue stain), although partially obscured by melanin. […] Note the highly localized area of follicle induction, corresponding to the area adjacent to bead insertion. […]

[5] = 10 μM, BrdU 2-3 DIV, fixed 3 DIV, typical experiment

C=CC1(C)CC(=O)C2(O)C(C)(O1)C(OC(=O)CCCN1CCN(C)CC1)C(O)C1C(C)(C)CCC(O)C12C (centres unmarked) [H-forskolin, 7-deacetyl-7-[O-(N-methylpiperazino)-gamma-butyryl]-forskolin]
inhibition of tritiated thymidine incorporation (medulloblastoma cells): 91%
Xgal staining of tumors (Hh signaling): reduced Xgal staining
tumor size ([1]; systemic, continuous via subcutaneous osmotic minipump, versus control mice): smaller

CC1=C2C[C@H]3[C@@H](CC=C4C[C@@H](O)CC[C@@]43C)[C@@H]2CC[C@]12O[C@@H]1C[C@H](C)CN[C@H]1[C@H]2C [cyclopamine]
inhibition of proliferation of the medulloblastoma cells ([2]; 10 μM): strongly inhibit proliferation

CC1=C2C(=O)[C@H]3[C@@H](CC=C4C[C@@H](O)CC[C@@]43C)[C@@H]2CC[C@]12O[C@@H]1C[C@H](C)CN[C@H]1[C@H]2C [jervine]
inhibition of proliferation of the medulloblastoma cells ([2]; 10 μM): strongly inhibit proliferation
percent proliferation (BrdU(+) cells) [2, 5]: 0.2%

C[C@H]1CC[C@]2(NC1)O[C@H]1C[C@H]3[C@@H]4CC[C@H]5C[C@@H](O)CC[C@]5(C)[C@H]4CC[C@]3(C)[C@H]1[C@@H]2C [tomatidine]
percent proliferation (BrdU(+) cells) [2, 5]: 5.9%

forskolin
inhibition of proliferation of the medulloblastoma cells ([2]; forskolin 50 μM): strongly inhibit proliferation
inhibition of proliferation ([2]; forskolin 50 μM versus DMSO control): 95%
percent proliferation (BrdU(+) cells) ([2]; forskolin 50 μM, typical experiment (FIG. 5)): 0.4%
gli-1 expression (gli-1): strongly inhibit gli-1 expression
inhibition of tritiated thymidine incorporation (medulloblastoma cells): 93%
Xgal staining of tumors (Hh signaling): lower Xgal staining
tumor regression in one treated mouse ([1]; daily intraperitoneal injections): regressed, disappeared, and has not reappeared in over 60 days
tumor growth ([1]; daily intraperitoneal injections, versus DMSO): did not grow excessively large
hair density and hair follicle structure [3]: decrease of hair density and abnormalities of hair follicle structure
hair development in the fetus (hair development; 20 μl of 50 mM in DMSO intraperitoneally daily E14.5 to E17.5): severe disruption of hair development
number of hair follicles in fetal skin (hair development; 20 μl of 50 mM in DMSO intraperitoneally daily E14.5 to E17.5, some fetuses): great reduction of the number of hair follicles
BCC tissue histology [4]: tumor shrinkage and/or cell death
hair follicles, hair length, pigmentation and dermis thickness (hair follicles): reduction of hair follicles, hair length, pigmentation and dermis thickness to levels comparable to the control
